This note sets out measurements from ChEMBL document CHEMBL1201862, “PubChem BioAssay data set” (2004).

Test [1] deals with T1, Sentrin-specific protease 6 (Homo sapiens, UniProt Q9GZR1).
T1 sequence (Q9GZR1 whole entry): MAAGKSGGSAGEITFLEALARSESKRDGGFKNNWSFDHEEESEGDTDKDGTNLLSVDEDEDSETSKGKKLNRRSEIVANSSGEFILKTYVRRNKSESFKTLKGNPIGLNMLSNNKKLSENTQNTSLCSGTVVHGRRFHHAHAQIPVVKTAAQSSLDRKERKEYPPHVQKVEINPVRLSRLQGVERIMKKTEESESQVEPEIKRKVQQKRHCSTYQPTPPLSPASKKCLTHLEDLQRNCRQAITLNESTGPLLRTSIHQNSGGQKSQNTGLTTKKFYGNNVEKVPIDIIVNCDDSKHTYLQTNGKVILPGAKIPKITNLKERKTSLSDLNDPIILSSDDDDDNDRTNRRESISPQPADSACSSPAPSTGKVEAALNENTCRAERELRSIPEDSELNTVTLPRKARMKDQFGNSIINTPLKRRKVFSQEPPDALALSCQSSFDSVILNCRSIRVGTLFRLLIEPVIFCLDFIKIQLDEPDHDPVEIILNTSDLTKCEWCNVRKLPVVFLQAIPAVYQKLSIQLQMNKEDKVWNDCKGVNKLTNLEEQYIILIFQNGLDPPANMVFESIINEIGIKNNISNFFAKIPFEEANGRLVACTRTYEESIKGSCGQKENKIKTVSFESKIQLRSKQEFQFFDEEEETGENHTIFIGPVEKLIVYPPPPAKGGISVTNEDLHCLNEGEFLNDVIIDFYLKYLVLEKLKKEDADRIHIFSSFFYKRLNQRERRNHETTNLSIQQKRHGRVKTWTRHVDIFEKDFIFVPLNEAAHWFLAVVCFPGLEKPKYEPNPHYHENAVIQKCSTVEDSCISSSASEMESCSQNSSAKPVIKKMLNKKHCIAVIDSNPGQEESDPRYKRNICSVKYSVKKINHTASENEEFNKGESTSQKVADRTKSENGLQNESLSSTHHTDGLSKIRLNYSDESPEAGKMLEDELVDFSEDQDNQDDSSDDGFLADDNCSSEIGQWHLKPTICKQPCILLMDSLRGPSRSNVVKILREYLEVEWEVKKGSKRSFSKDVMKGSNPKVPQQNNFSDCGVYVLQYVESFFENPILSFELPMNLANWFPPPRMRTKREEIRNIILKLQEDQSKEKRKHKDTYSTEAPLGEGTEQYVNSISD
As to the kind of experiment: SAR Analysis of small molecule inhibitors of Sentrin-specific protease 6 (SENP6) using a Luminescent assay. [Related pubchem assays (depositor defined):AID2582, AID2599]. It counts as functional.

Test [2] deals with T2, Caspase-3 (Homo sapiens, UniProt P42574).
T2 sequence (P42574 whole entry): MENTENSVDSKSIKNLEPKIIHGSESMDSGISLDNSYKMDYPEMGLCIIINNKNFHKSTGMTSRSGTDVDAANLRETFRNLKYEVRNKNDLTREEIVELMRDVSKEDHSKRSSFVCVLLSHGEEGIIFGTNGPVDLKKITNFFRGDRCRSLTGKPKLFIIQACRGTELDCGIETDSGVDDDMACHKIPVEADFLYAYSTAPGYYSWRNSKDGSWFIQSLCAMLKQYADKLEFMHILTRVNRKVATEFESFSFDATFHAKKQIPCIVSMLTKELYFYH
As to the kind of experiment: SAR Analysis of small molecule inhibitors of Sentrin-specific proteases (SENPs) using a Caspase-3 Selectivity assay. [Related pubchem assays (depositor defined):AID2540, AID2599, AID434973, AID489001]. It is filed as functional.

Test [3] has as its target T3, Sentrin-specific protease 7 (Homo sapiens, UniProt Q9BQF6).
T3 sequence (Q9BQF6 whole entry): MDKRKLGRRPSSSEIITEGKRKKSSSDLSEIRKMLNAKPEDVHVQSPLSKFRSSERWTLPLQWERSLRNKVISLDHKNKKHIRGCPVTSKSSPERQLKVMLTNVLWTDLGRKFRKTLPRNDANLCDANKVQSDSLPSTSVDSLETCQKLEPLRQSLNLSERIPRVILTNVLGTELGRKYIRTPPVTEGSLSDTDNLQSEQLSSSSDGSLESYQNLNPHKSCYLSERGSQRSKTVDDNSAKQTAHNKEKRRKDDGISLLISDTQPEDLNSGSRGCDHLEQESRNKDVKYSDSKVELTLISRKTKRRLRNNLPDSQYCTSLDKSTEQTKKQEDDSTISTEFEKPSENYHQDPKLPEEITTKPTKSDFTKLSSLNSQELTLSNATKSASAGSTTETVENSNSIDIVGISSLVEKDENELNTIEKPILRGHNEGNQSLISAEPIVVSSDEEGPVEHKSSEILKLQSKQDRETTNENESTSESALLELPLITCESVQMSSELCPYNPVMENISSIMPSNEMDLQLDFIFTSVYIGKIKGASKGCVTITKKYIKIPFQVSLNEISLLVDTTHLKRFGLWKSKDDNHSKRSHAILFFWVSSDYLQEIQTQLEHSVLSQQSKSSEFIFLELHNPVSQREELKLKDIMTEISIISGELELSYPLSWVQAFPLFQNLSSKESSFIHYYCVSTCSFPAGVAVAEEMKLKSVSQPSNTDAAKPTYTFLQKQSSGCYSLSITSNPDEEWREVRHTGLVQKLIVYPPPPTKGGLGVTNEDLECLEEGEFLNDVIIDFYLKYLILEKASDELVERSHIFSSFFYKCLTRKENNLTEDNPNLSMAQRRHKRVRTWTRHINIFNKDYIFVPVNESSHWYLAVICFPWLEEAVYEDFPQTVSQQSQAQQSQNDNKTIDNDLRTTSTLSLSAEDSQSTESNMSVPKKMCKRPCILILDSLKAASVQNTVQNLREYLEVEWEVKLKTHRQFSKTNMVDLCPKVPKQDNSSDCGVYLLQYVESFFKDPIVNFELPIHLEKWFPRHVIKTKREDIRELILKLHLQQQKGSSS
As to the kind of experiment: inhibition of human SENP7 cleavage activity – biochemical, luminescence, SAR follow-up (AID 504497). It is filed as functional.

Test [4] has as its target T4, Sentrin-specific protease 8 (Homo sapiens, UniProt Q96LD8).
T4 sequence (Q96LD8 whole entry): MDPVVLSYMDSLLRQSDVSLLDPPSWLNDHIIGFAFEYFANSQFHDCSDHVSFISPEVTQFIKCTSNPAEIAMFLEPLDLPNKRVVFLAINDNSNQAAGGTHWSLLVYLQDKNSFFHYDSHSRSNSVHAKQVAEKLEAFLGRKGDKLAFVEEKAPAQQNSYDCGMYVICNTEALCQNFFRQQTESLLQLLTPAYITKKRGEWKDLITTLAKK
As to the kind of experiment: inhibition of human SENP8 cleavage activity – biochemical, luminescence, SAR follow-up (AID 504501). It counts as functional.

Test [5] is described as follows: non-specific 3'UTR reporter inhibition in Clone20-Shn3RL – cell-based, Renilla luciferase, cherry-picked, counter-screen for Shn3 inhibitor project, dose response (AID 624133). It counts as functional. For orientation: Counterscreens check selectivity or assay interference.
Test [6] addresses T5, Streptokinase A (Streptococcus pyogenes serotype M1, UniProt P10520).
T5 sequence (P10520 whole entry): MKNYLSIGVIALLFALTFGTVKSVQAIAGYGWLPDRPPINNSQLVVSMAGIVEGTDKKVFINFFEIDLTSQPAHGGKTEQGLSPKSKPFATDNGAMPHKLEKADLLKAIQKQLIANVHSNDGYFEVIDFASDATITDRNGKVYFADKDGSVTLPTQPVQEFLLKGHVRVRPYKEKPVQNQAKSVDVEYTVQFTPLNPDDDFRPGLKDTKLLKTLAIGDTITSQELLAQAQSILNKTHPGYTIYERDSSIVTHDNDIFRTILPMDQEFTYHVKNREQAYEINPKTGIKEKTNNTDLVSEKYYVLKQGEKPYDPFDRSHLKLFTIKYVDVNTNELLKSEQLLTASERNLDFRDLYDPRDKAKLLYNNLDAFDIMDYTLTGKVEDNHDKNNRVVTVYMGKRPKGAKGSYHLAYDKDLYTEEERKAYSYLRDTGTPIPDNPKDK
As to the kind of experiment: viability-normalized secreted streptokinase activity reduction – plasminogen activation absorbance, OD405, dose response (AID 1914).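 Also: secreted streptokinase activity via plasminogen activation per viability signal from cell pellet.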 It counts as functional, Streptococcus pyogenes M1 GAS.

The target in test [7] is Beta-galactosidase (Escherichia coli, UniProt Q8VNN2). It is filed as functional.
Chain of Beta-galactosidase (Q8VNN2 whole entry): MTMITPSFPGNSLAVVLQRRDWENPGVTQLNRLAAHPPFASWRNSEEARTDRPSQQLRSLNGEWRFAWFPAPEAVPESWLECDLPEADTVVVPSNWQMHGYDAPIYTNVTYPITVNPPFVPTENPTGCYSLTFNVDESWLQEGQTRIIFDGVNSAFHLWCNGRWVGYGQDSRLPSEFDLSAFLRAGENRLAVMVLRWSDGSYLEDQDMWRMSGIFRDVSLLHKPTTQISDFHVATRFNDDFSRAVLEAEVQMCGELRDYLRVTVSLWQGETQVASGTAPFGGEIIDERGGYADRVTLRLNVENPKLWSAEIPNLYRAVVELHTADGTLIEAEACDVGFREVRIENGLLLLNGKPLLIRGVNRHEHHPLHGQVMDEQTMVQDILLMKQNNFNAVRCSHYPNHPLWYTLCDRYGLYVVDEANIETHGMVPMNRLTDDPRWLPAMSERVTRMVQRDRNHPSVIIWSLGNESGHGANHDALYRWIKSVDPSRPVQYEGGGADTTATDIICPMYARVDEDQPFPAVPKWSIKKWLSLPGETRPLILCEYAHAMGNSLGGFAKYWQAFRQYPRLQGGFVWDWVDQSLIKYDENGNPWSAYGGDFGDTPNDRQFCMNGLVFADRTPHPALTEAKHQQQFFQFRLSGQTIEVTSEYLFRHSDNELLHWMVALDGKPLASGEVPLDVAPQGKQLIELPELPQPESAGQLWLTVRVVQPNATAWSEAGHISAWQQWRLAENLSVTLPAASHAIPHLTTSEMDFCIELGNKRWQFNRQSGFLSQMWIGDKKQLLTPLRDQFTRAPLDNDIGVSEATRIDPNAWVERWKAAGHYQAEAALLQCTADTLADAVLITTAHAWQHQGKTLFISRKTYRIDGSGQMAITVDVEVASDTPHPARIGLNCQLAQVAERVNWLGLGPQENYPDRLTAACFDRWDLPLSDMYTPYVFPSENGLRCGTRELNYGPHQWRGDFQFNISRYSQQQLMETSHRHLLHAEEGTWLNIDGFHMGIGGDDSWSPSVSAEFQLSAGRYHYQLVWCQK
In test [8] the target is Beta Lactamase (Pseudomonas aeruginosa, UniProt Q932Y6). The experiment in a line: BLA reporter interference, concentration series – BLA reporter cells, FRET fluorescence, artefact control for TLR9-MyD88 binding inhibitor project, dose response (AID 588341).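 Also: cell based assay in CHO-K1 cells stably expressing beta-lactamase.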 It counts as cell-based.
Chain of Beta Lactamase (Q932Y6 whole entry): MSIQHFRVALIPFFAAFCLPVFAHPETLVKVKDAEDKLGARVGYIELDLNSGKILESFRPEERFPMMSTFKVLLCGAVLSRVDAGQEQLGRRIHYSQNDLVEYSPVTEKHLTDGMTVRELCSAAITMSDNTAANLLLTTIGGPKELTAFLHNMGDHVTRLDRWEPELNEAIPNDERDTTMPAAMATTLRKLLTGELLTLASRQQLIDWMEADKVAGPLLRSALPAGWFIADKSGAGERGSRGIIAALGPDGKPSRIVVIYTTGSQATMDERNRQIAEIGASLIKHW
A short description of test [9]: viability of HCT116 lacking mutant beta-catenin – cell-based, human colon tumor, dose response (AID 1045).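 Also: HCT116 colon tumor cells with beta catenin knocked out; cells exposed to compound for 60 hours.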 It counts as functional.
The subject of test [10] is Streptococcus sp. 'group A'. As to the kind of experiment: Streptococcus pyogenes SK(-)GAS viability under kanamycin – luminescence, BacTiterGlo, confirmation, counter-screen for streptokinase expression inhibitor project, dose response (AID 1900). It counts as functional, organism-based.
A short description of test [11]: reduction of Shn3 3'UTR-driven luciferase in osteoblasts – cell-based, Clone20 osteoblasts, firefly luciferase, cherry-picked, dose response (AID 624132).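 Also: firefly luciferase luminescence from reporter carrying the Shn3 3'UTR in osteoblasts.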 It is filed as functional.
The nature of test [12]: loss of viability in HepG2 cells – cell-based, CellTiter-Glo, cherry-picked, cytotoxicity control for Shn3 inhibitor project, dose response (AID 624134). It is filed as functional. (In ATP-based viability assays light output follows the ATP content of the culture.)
A short description of test [13]: viability of PTEN-deleted HCT116 cells – cell-based, HCT116 PTEN knockout, dose response (AID 1047).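 Also: HCT116 colon tumor cells with PTEN knocked out; cells exposed to compound for 60 hours before readout.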 It is filed as functional.
In test [14] the target is Mu-type opioid receptor (Homo sapiens, UniProt P35372). As to the kind of experiment: HTS Image-Based Screen for Agonists of the MOR Receptor. [Related pubchem assays (depositor defined):AID1777, AID1785, AID1786, AID2133]. It counts as functional.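 Also: imaging of beta-arrestin GFP recruitment into spots after receptor activation.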
Chain of Mu-type opioid receptor (P35372 whole entry): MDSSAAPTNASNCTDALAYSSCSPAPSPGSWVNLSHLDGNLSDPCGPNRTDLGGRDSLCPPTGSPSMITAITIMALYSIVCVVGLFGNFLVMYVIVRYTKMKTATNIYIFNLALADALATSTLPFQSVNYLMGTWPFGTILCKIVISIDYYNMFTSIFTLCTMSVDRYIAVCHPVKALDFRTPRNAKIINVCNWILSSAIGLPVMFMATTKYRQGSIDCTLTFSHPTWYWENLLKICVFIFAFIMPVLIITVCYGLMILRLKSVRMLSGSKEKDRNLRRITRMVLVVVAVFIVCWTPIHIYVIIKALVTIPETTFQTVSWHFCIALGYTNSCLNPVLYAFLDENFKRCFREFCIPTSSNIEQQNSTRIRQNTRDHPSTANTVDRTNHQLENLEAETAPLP
Test [15] in a line: alpha-synuclein stem-loop luciferase translation blockers – H4 neuroglioma cells, luminescence, confirmation (AID 1988). It is filed as functional, cell-based.
The target of test [16] is T6, Delta-type opioid receptor (Homo sapiens, UniProt P41143). As to the kind of experiment: HTS Image-Based Screen for Antagonists of the DOR Receptor. [Related pubchem assays (depositor defined):AID1777, AID1785, AID1786, AID2133]. It counts as functional.
T6 sequence (P41143 whole entry, the tested form may be a part): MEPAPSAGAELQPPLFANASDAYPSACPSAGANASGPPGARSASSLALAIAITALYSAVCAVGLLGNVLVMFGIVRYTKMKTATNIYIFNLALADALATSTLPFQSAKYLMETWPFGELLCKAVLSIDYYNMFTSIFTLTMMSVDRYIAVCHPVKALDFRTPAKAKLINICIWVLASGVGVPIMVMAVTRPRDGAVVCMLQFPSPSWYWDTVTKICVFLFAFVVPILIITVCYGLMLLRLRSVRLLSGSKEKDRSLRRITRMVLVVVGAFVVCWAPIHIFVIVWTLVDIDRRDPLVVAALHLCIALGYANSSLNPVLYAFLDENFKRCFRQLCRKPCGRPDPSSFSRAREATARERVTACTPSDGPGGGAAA
Test [17] deals with CHO. As to the kind of experiment: CHO cell viability loss, potency – luminescence, cytotoxicity control for TLR9-MyD88 binding inhibitor project, dose response (AID 588339).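 Also: CHO cells stably coexpressing TLR9 and MyD88 fusions from primary screen; compound exposure lasted 48 hours before viability readout.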 It counts as functional, cell-based, hamster. The conditions noted are these: Cricetulus griseus.
Test [18] deals with T7, Kappa-type opioid receptor (Homo sapiens, UniProt P41145). It counts as functional.
T7 sequence (P41145 whole entry): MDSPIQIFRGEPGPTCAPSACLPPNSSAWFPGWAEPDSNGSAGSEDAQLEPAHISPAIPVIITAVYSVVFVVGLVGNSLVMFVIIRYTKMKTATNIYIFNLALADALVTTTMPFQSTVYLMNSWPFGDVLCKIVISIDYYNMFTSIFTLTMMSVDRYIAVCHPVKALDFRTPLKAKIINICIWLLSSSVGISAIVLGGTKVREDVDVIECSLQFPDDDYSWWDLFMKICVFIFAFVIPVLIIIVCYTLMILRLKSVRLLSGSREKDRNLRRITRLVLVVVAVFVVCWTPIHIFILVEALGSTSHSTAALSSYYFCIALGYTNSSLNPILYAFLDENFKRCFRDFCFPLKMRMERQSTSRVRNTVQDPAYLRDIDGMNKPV
Test [19] relates to Streptococcus. The experiment in a line: GAS UMAA2166 growth inhibition – luminescence, BacTiterGlo, counter-screen for streptokinase expression inhibitor project, dose response (AID 1915).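 Also: potency for reduction of bacterial viability or growth.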 It counts as functional, organism-based.
Test [20] deals with T7, Kappa-type opioid receptor. It counts as functional. The source holds these as a separate data set.
Test [21] in a line: HEK-293T viability loss after treatment – luminescence, T-cell screen hits, cytotoxicity control for TCR NF-kB inhibitor project, dose response (AID 489026).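 Also: cells exposed to compound about 14 hours before the viability readout.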 It counts as functional, cell-based.
Test [22] is described as follows: Luminescence Cell-Based Dose Response HTS to Identify Inhibitors of 5'UTR Stem-Loop Driven Prion Protein mRNA Translation in H4 Neuroglioblastoma Cells. [Related pubchem assays: 1827 (Project Summary), 1813 (Primary HTS)]. It counts as functional.
Test [23] can be described thus: luciferase reporter signal suppression in cells – H4 neuroglioma cells, luminescence, dose response (AID 1990). It counts as functional, cell-based. In general terms: Reporter assays use an easily measured gene product as a stand-in for the process of interest.
Test [24] concerns the target T6, Delta-type opioid receptor. As to the kind of experiment: HTS Image-Based Screen for Agonists of the DOR Receptor. [Related pubchem assays (depositor defined):AID1777, AID1786, AID2133]. It is filed as functional.
The target in test [25] is T8, fMet-Leu-Phe receptor (Homo sapiens, UniProt P21462).
T8 sequence (P21462 whole entry): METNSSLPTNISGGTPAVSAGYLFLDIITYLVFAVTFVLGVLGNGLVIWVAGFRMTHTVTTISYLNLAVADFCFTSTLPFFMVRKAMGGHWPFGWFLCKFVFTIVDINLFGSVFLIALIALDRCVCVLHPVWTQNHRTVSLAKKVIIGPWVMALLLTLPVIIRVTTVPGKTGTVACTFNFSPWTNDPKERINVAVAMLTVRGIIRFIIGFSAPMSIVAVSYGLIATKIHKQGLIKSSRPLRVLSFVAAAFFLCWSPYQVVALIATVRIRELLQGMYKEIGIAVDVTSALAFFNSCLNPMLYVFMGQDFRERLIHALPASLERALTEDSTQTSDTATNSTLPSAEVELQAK
As to the kind of experiment: formyl peptide receptor binders – dose response (AID 519). It is filed as functional.

Calls of active or inactive are those of the source.

As a reminder, the IC50 is the concentration that inhibits the measured activity by half. For `O=C(Nc1ccncc1)c1ccc2c(c1)OCO2`, the IC50 was > 99 µM (inactive) in [1], 14.4 µM (active) in test [2], 33.8 µM (active) in test [3] and > 99 µM (inactive) in test [4].

In general, AC50 refers to the concentration at which the activity in the assay is half-maximal. As usually defined, the EC50 is the midpoint of the concentration-response curve. As a reminder, the Ki is the equilibrium dissociation constant of an inhibitor or competing ligand from its target. Take `O=S(=O)(Nc1cccc2ncccc12)c1cccs1`: the half-maximal activity concentration (AC50) in test [5] is 13.2 µM (active); in test [11] it was 4.3 µM (active); in test [12], 6.33 µM (active). The half-maximal effective concentration (EC50) in [6] was > 150 µM (not active); in test [7], > 31.5 µM (inactive); in [9], 1.62 µM (active); in [10] it was 3.58 µM (active); in [13] it was 1.97 µM (active); in test [14], > 32 µM (inactive). The EC50 is 11.8 µM (active) in [15]; 7.13 µM (active) in test [19]; 7.05 µM (active) in [22]; 15.3 µM (active) in test [23]; > 32 µM (inactive) in [24]. The IC50 in test [8] is > 49.7 µM (inactive); in [16] it was > 32 µM (inactive); in [17], 4.34 µM (active); in [18] it was above 32 µM; in test [20], 2.64 µM (active); in test [21], > 80 µM (inactive). Moreover, the Ki in test [25] was > 66.7 µM (inactive).
